The assay relates to human myeloma MM.1S cells subcutaneous xenograft tumor. Kind of assay: In vivo pharmacodynamic study with Ixazomib, MM.1S subcutaneous xenograft in CB-17 SCID model. Also noted: species or system CB-17 SCID mouse. The settings on record: Ixazomib 4 mg/kg administered alone, 21st day. As for the experimental part: The purpose of this experiment was to investigate the in vivo therapeutic effect of the compounds of the present invention in combination with proteasome inhibitor Ixazomib on human myeloma MM.1S cell subcutaneous xenografts in the CB-17 SCID model.
Human myeloma MM. S cells were cultured in vitro in a single layer, culture environment was RPMI-1640 medium (supplier: Gibco; Cat. No. 22400-089) supplemented with 10% fetal bovine serum, 37° C. 5% CO2 incubator. Then passage was done by routinely digested with trypsin-EDTA twice a week. When the cell saturation rate reached 80%-90%, the cells were collected, counted, and inoculated.
0.2 mL of 5×10^6 MM.1S cells were subcutaneously inoculated into the right back of each mouse (Beijing Weitong Lihua Biotechnology Co., Ltd., female, 6-8 weeks old) (PBS: Matrigel=1:1)). Administration by groups was initiated when the average tumor volume reached 100-150 mm^3.
Animals were monitored daily for health and mortality, routine tests includes observations of tumor growth and drug treatment effects on animal performance, such as behavioral activities, food intake (visual inspection only), weight change (measured every other day), appearance signs or other abnormal conditions. The number of animal deaths and side effects in the group were recorded based on the number of animals in each group.
The experimental index is to investigate whether tumor growth is inhibited, delayed or cured. Tumor diameters were measured with vernier calipers three times a week. The tumor volume is calculated by: V=0.5a×b^2, where a and b represent the long and short diameters of the tumor, respectively.
The antitumor effect of the compound was evaluated by TGI (%) or relative tumor growth rate T/C (%). TGI (%), reflecting the tumor growth inhibition rate. […]

Drawing on patent US10745389B2, “HDAC6 selective inhibitors, preparation method therefor, and application thereof” (CSTONE PHARMACEUTICALS (SUZHOU) CO., LTD., priority 2017, dated 2020), this text covers tumor volume, T/C and TGI for one molecule.

Take `CC(C)C[C@H](NC(=O)CNC(=O)c1cc(Cl)ccc1Cl)B(O)O` [Ixazomib]: the tumor volume was 916 mm^3. Where the note is “vs solvent control”, the T/C (commonly the result in the treated group divided by that in the control group, in per cent) is given as 34.97% and the TGI (commonly how far tumour growth fell short of that in controls) amounted to 68.65%.
